Patent US20250042900A1 (priority 2022, published 2025)
Counter-ions that a name gives are not always drawn.

How the values were obtained:
[1] = target: T1, dopamine transporter (DAT) (Rattus norvegicus, UniProt P23977); experiment: Dopamine Release Assay in rat synaptosomes; assay type: biochemical; details: rat synaptosomes preloaded with 30 nM [3H]DA; eight concentrations from 10 μM; four-parameter log-logistic fit; estimated
T1 construct: synaptosomes prepared from brains using standard procedures; from tissue; host or cells: caudate synaptosomes of male Sprague-Dawley rats
T1 sequence (P23977 whole entry): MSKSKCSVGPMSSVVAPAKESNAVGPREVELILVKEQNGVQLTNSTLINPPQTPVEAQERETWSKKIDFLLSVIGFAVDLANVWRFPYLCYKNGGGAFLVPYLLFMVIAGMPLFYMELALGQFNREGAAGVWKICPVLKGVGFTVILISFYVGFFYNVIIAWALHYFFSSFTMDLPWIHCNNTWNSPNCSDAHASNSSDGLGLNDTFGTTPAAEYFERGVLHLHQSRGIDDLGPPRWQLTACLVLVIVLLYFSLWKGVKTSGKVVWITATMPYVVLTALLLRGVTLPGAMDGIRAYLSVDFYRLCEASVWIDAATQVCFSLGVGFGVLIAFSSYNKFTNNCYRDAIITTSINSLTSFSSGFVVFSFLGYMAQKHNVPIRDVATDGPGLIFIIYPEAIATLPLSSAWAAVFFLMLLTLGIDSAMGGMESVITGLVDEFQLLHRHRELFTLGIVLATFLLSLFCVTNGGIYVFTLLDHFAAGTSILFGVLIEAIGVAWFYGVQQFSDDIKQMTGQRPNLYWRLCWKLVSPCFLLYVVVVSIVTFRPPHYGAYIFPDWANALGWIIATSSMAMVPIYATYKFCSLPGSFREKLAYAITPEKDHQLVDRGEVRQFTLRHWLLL

[2] = target: CAV1.2 (Voltage-gated L-type calcium channel) (Homo sapiens, UniProt Q13936); experiment: Ion channel assay, blocker format; assay type: cell-based; details: read-out: IC50 (μM) Antag./Blocker/Inhibitor
Sequence of CAV1.2 (Voltage-gated L-type calcium channel) (Q13936 whole entry): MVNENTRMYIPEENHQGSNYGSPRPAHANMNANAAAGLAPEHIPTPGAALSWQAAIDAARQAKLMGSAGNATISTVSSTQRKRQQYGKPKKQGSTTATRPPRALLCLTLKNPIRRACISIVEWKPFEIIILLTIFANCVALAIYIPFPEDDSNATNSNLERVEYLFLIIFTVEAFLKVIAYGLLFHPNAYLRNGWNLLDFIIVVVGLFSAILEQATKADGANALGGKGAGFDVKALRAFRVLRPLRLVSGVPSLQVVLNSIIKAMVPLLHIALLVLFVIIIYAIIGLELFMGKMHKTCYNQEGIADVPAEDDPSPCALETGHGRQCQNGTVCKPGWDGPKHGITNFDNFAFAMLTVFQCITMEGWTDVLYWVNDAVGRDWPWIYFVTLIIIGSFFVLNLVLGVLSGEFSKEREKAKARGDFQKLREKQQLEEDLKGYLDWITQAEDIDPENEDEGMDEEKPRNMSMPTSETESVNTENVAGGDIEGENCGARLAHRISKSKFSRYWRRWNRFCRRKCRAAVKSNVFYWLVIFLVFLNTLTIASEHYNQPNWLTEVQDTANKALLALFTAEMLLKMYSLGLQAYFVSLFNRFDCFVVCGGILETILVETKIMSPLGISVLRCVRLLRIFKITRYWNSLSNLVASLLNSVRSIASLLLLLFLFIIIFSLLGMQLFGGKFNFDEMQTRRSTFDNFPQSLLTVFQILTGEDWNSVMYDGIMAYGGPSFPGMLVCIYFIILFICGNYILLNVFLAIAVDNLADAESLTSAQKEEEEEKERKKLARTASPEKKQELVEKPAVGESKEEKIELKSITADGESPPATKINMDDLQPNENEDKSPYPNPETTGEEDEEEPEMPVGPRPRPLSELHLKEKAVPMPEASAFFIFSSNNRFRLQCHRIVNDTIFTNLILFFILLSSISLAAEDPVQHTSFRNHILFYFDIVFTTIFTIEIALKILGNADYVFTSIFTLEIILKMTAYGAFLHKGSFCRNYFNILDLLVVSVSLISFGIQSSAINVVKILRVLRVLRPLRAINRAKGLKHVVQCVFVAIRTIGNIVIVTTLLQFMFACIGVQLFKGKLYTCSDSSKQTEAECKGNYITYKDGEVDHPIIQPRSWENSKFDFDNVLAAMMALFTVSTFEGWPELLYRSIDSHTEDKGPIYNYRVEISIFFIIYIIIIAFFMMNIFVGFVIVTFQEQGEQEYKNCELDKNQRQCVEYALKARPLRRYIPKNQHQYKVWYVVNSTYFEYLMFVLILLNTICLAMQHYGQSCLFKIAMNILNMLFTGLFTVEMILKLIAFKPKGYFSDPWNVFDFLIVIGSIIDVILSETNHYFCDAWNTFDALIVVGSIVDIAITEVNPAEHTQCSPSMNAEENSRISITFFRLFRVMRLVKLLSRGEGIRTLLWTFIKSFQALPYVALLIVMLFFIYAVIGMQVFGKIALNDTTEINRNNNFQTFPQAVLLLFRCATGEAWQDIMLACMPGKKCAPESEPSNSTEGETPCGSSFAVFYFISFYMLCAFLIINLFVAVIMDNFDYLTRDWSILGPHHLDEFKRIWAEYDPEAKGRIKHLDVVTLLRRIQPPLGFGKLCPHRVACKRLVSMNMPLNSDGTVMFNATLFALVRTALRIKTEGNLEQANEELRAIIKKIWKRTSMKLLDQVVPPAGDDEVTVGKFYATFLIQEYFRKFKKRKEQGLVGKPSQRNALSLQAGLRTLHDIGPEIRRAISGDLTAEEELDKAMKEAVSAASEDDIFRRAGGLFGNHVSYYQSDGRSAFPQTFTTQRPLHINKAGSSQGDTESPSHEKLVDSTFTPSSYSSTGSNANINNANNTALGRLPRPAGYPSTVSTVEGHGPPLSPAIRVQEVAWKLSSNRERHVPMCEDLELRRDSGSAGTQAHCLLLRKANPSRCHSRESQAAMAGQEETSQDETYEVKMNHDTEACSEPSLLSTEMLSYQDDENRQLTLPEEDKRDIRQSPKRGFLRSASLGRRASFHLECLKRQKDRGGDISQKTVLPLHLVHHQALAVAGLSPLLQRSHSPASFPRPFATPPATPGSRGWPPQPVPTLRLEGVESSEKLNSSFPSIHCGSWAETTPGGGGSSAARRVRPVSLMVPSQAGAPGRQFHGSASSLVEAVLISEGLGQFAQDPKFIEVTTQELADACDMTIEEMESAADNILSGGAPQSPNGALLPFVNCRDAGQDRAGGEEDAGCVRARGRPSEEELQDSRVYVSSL
Sequence of CAV1.2 (Voltage-gated L-type calcium channel) (Q08289 whole entry partner): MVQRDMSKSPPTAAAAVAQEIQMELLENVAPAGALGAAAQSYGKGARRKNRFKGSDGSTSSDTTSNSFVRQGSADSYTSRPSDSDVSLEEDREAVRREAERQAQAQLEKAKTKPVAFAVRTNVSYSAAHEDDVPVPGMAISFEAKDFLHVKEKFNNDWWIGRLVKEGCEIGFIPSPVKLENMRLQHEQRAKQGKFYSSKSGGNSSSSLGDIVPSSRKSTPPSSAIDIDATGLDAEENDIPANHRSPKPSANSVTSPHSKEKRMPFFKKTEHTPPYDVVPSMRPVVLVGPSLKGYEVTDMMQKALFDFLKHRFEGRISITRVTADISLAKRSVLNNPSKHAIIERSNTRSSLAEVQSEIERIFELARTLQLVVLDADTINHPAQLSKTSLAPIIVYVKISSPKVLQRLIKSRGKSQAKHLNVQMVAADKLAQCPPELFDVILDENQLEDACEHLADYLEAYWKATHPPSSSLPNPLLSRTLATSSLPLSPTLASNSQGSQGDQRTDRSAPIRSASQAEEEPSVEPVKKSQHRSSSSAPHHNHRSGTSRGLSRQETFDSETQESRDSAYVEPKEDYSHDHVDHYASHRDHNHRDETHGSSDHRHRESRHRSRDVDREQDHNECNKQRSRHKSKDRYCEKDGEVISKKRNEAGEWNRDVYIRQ
Sequence of CAV1.2 (Voltage-gated L-type calcium channel) (P54289 25-956 partner limits assumed): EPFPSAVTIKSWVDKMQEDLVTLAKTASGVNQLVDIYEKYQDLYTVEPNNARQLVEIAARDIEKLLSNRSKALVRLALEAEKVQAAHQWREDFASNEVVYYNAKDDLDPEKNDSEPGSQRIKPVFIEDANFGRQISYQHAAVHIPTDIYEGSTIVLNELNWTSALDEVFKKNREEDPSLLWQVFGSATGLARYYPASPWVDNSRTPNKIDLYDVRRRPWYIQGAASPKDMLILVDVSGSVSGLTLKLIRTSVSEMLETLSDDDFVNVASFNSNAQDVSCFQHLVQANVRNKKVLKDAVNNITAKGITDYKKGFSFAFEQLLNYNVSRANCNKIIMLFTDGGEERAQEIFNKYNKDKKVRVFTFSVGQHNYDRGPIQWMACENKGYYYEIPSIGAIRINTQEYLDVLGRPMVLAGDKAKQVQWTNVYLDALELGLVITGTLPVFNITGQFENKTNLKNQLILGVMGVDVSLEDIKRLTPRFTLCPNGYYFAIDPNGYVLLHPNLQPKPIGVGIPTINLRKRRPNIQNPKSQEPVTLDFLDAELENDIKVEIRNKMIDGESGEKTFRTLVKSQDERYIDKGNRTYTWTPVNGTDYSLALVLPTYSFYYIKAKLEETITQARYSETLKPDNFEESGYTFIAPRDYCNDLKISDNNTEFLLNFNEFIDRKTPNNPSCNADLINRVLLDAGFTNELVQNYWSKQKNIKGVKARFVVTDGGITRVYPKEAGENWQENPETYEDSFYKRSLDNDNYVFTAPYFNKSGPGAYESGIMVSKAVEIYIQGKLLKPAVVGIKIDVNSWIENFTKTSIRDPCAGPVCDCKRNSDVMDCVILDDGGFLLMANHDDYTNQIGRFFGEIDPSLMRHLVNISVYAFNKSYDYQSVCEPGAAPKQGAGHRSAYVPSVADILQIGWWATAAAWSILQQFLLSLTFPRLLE
Sequence of CAV1.2 (Voltage-gated L-type calcium channel) (P54289 957-1103 partner limits assumed): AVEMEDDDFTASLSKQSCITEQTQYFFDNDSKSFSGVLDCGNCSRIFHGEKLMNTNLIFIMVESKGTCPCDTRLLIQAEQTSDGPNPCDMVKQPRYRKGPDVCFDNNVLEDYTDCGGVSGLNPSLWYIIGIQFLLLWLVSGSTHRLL

[3] = humans, after 75 or 125 mg MDMA; standard deviation 1.3 hours; cited from earlier work
DAT and SERT = details: cited from earlier work
DAT and NET = details: neurotransmitter release; cited from earlier work
[4] = target: Nicotinic acetylcholine Receptor α4 β2 (nAChR(a4/b2)) (Homo sapiens, UniProt P17787+P43681); experiment: Ion channel assay, blocker format; assay type: cell-based; details: nAChR(a4/b2); Ion Channel; blocker; read-out: IC50 (μM) Antag./Blocker/Inhibitor
[5] = target: Gamma-aminobutyric acid Receptor A (GABAA); experiment: Ion channel assay, blocker format; assay type: cell-based; details: GABAA; Ion Channel; blocker; read-out: IC50 (μM) Antag./Blocker/Inhibitor

In the case of `CCC(Cc1ccn2ccccc12)NC` (stereo not shown) [Compound 25-14, 1-(indolizin-1-yl)-N-methylbutan-2-amine], the EC50 [1] is reported as 2.71 µM.

With `CNC(C)Cc1ccn2ccccc12` (stereo not shown) [Compound 26-5, 1-(indolizin-1-yl)-N-methylpropan-2-amine HCl salt] the EC50 [1] was 0.0619 µM.

`CCC(N)Cc1ccn2ccccc12` (stereo not shown) [Compound 27-1, 1-indolizin-1-ylbutan-2-amine HCl salt] showed an EC50 [1] of 21.8 µM.

In the case of `COC(=O)C1=C(C)NC(C)=C(C(=O)OC(C)C)C1c1cccc2nonc12` (stereo not shown) [Isradipine, reference compound], the IC50 [2] is reported as 0.017 µM.

In the case of `CNC(C)Cc1ccc2c(c1)OCO2` (stereo not shown) [MDMA], the “duration of acute therapeutic effects” value [3] is listed as 4.2 h and the “DAT/SERT IC50 ratio” value (DAT and SERT) is listed as 0.08.

In the case of `C[C@H](N)Cc1ccccc1` [d-amphetamine, dextroamphetamine], the “DAT/NET EC50 ratio” value (DAT and NET) is listed as 0.9.

For `CN[C@@H](C)Cc1ccccc1` [d-methamphetamine], the “DAT/NET EC50 ratio” value (DAT and NET) is listed as 0.5.

“Dihydro-AY-erythroidine [reference compound]” gave an IC50 [4] of 0.682 µM.

Picrotoxin [reference compound] gave an IC50 [5] of 2.78 µM.
